# Activity calls are given as the source filed them. No cut-off for these calls is given here.
# Assays:
# [1] = Inhibition of human full length HA-tagged CD95/human full length Myc-tagged PLCgamma1 protein-protein interaction transfected in HEK293T cells incubated for 4 hrs by renilla luciferase based protein-fragment complementation assay; type: cell-based
# [2] = Inhibition of human full length HA-tagged CD95/FADD (unknown origin) protein-protein interaction transfected in HEK293T cells incubated for 4 hrs by renilla luciferase based protein-fragment complementation assay; type: cell-based
# [3] = species on record: Homo sapiens; test: Selectivity ratio of IC50 for human full length HA-tagged CD95/FADD (unknown origin) protein-protein interaction to IC50 for human full length HA-tagged CD95/human full length Myc-tagged PLCgamma1 protein-protein interaction
# [4] = target: T1, 1-phosphatidylinositol 4,5-bisphosphate phosphodiesterase gamma-1 (Homo sapiens) (UniProt P19174); test: (§1) Binding affinity to human full length Myc-tagged PLCgamma1 transfected in HEK293T cells by pull down assay; type: cell-based
# T1 sequence (whole entry): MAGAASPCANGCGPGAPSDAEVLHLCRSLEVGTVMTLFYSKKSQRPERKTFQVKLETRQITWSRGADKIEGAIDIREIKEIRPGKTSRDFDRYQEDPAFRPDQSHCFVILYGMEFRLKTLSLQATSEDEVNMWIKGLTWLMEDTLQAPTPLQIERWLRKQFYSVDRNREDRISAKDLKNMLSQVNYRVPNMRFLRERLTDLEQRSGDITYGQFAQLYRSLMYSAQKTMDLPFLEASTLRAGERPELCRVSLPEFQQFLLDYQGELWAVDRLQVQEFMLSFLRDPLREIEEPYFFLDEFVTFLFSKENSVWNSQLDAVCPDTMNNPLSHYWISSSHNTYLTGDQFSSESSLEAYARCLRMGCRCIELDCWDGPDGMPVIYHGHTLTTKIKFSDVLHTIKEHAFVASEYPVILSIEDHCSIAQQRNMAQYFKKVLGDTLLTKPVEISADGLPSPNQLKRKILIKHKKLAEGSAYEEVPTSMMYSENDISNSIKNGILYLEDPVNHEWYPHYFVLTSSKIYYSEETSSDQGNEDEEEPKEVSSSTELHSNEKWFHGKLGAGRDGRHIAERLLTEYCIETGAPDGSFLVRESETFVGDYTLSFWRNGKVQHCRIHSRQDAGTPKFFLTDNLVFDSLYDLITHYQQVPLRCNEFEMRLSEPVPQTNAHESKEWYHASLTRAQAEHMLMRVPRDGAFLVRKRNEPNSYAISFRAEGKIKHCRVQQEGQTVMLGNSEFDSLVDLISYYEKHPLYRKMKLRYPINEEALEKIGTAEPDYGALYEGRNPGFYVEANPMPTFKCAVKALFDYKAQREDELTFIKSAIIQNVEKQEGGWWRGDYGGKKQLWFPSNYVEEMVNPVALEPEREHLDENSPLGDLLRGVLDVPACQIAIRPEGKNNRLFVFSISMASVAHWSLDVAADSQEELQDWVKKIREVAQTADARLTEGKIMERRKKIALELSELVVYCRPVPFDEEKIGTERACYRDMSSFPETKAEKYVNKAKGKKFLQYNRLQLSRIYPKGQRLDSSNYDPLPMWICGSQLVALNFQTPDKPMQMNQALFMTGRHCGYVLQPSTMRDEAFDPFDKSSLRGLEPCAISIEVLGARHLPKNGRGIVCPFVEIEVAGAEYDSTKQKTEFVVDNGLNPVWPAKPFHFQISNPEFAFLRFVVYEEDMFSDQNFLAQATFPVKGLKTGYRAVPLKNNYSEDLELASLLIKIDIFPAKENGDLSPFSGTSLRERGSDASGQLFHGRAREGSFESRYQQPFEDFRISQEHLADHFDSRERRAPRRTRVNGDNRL
# [5] = target: T2, 1-phosphatidylinositol 4,5-bisphosphate phosphodiesterase gamma-1 (Homo sapiens, UniProt P19174); test: as §1; type: cell-based
# T2 sequence (P19174 whole entry): T1 sequence (whole entry)
# [6] = target: T3, Tumor necrosis factor receptor superfamily member 6 (Homo sapiens) (UniProt P25445); test: Inhibition of s-CD95L(unknown origin)-stimulated cell migration of human MDA-MB-231 cells at 10 uM incubated for 24 hrs by Boyden chambers assay; type: cell-based
# T3 sequence (whole entry): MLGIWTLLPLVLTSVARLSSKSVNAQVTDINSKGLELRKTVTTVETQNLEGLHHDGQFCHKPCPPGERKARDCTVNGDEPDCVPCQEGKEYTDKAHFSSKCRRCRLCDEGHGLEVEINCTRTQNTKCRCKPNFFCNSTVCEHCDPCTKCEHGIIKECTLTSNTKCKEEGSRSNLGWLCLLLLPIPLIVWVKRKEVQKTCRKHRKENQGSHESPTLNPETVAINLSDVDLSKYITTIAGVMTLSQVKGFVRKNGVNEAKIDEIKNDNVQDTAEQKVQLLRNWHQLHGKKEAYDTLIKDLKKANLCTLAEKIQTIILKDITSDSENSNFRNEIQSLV
# [7] = target: T3, Tumor necrosis factor receptor superfamily member 6 (Homo sapiens); test: Inhibition of s-CD95L(unknown origin)-stimulated cell migration of human MDA-MB-231 cells at 10 uM incubated for 24 hrs by Giemsa-staining based assay
# [8] = target: T3, Tumor necrosis factor receptor superfamily member 6 (Homo sapiens); test: Inhibition of s-CD95L(unknown origin)-stimulated cell migration of human Th17 cells at 10 uM incubated for 24 hrs by Boyden chambers assay
# [9] = Half life in human whole blood; type: ADME, tissue-based
# [10] = target: T3, Tumor necrosis factor receptor superfamily member 6 (Homo sapiens); test: Inhibition of s-CD95L(unknown origin)-stimulated cell migration of human MDA-MB-231 cells at 1 uM incubated for 24 hrs by Boyden chambers assay; type: cell-based
# [11] = target: T3, Tumor necrosis factor receptor superfamily member 6 (Homo sapiens); test: Inhibition of s-CD95L(unknown origin)-stimulated cell migration of human MDA-MB-231 cells at 1 uM incubated for 24 hrs by Giemsa-staining based assay
# [12] = target: T3, Tumor necrosis factor receptor superfamily member 6 (Homo sapiens); test: Inhibition of s-CD95L(unknown origin)-stimulated cell migration of human Th17 cells at 1 uM incubated for 24 hrs by Boyden chambers assay
# [13] = test system: CCRF-CEM; test: Cytotoxicity in human CEM cells assessed as reduction in cell viability incubated for 24 hrs by MTT assay; type: cell-based
IC50 [1],IC50 ([2]; read-out: IC50),Ratio IC50 [3],Compound,other results
75 µM,3800 µM,50,N=C(N)NCCCCC(=O)N(CCNC(=O)[C@H](Cc1c[nH]cn1)N(CCNC(=O)[C@H](CCCNC(=N)N)N(CCN)C(=O)CCS)C(=O)CCCCCN)[C@@H](CCCCN)C(N)=O,inhibition [6]: Active; inhibition [7]: Active; inhibition [8]: Active
77 µM,,> 100,C[C@@H](O)[C@H](N)C(=O)NCCN(C(=O)CCS)[C@@H](CCCNC(=N)N)C(=O)NCCN(C(=O)CCCCCN)[C@@H](Cc1c[nH]cn1)C(=O)NCCN(C(=O)CCCCNC(=N)N)[C@@H](CCCCN)C(N)=O,IC50 [2]: Not Active; half-life [9]: 11 to 11.1 h; inhibition [6]: Active; inhibition [7]: Active; inhibition [8]: Active
35 µM,39 µM,1.1,CCCCCCCCCCCCCCCCCC(=O)N(CCN)[C@@H](CCCNC(=N)N)C(=O)NCCN(C(=O)CCCCCN)[C@@H](Cc1c[nH]cn1)C(=O)NCCN(C(=O)CCCCNC(=N)N)[C@@H](CCCCN)C(N)=O.O=C(O)C(F)(F)F.O=C(O)C(F)(F)F.O=C(O)C(F)(F)F.O=C(O)C(F)(F)F.O=C(O)C(F)(F)F,Activity [13]: Toxic

# Continued, compound first:
Compound,IC50 [1],IC50 ([2]; read-out: IC50),Ratio IC50 [3],other results
C[C@@H](O)CC(=O)N[C@@H](CS)C(=O)NCCN(C(=O)CCCCNC(=N)N)[C@@H](CCCCN)C(=O)NCCN(C(=O)CCc1c[nH]cn1)[C@@H](CCCNC(=N)N)C(=O)NCCNC(=O)CCCCCN,308 µM,629 µM,2,
N=C(N)NCCCCC(=O)N(CCNC(=O)[C@H](Cc1c[nH]cn1)N(CCNC(=O)[C@H](CCCNC(=N)N)N(CCN)C(=O)CCCC[C@@H]1SC[C@@H]2NC(=O)N[C@@H]21)C(=O)CCCCCN)[C@@H](CCCCN)C(N)=O,,,,Activity [4]: Active
C[C@@H](O)[C@H](NC(=O)CCCC[C@@H]1SC[C@@H]2NC(=O)N[C@@H]21)C(=O)NCCN(C(=O)CCS)[C@@H](CCCNC(=N)N)C(=O)NCCN(C(=O)CCCCCN)[C@@H](Cc1c[nH]cn1)C(=O)NCCN(C(=O)CCCCNC(=N)N)[C@@H](CCCCN)C(N)=O,,,,EC50 [5]: 25 to 50 µM
C[C@@H](O)CC(=O)N(CCN)[C@@H](CS)C(=O)NCCN(C(=O)CCCCNC(=N)N)[C@@H](CCCCN)C(=O)NCCN(C(=O)CCc1c[nH]cn1)[C@@H](CCCNC(=N)N)C(=O)NCCNC(=O)CCCCCN,229 µM,319 µM,1.4,
N=C(N)NCCCCC(=O)N(CCNC(=O)[C@@H](N)CS)[C@@H](CCCCN)C(=O)NCCN(C(=O)CCc1c[nH]cn1)[C@@H](CCCNC(=N)N)C(=O)NCCNC(=O)CCCCCN,400 µM,448 µM,1.1,
H-TCRKHRK-OH,35 µM,,> 100,IC50 [2]: Not Active; half-life [9]: 3 to 3.4 h; inhibition [10]: Active; inhibition [11]: Active; inhibition [12]: Active
